Legend:
C57BL/6 mice [1] = test: Open field test (OFT); assay type: in vivo; details: for time spent in the center of the arena in OFT (anxiety level) / number of total line crossings in OFT (locomotor activity): i.p. pretreatment, 10 min test session; for time spent in the center of the arena in OFT (anxiety level): ST-2300 10 or 15 mg/kg, PIM 5–15 mg/kg, DZP 1 mg/kg, vs controls; for number of total line crossings in OFT (locomotor activity): ST-2300 or PIM 5–15 mg/kg, C57BL/6 mice
Method: (§1) Inbred adult male C57BL/6 mice (aged 10–12 weeks and weighing 20–25 g) were obtained from the animal facility in the College of Medicine and Health Sciences, United Arab Emirates University. The animals were maintained in a separate air-conditioned room with controlled temperature and humidity (24 ± 2 °C and 55 ± 15%, respectively), with a 12 h light/dark cycle, and ad libitum to food and water. All the experiments were performed between 9.00 am and 3.00 pm. The procedures were approved by the Institutional Animal Ethics Committee of College of Medicine and Health Sciences/United Arab Emirates University (Approval No. ERA-2019-6010). To reduce the suffering of the animals, a minimum number of animals were used in this study, whereas the objectives were not compromised.
(§2) These experiments provide the first behavioral assessment of the ST-2300 in anxiety-like and depression-like behaviors in mice. All doses are expressed in terms of the free base of all test compounds. The drugs used in the current study were dissolved in saline and injected i.p. at a volume of 1 mL/kg. All experimental procedures were conducted in a blinded fashion in which the experimenter was uninformed about the specific treatment groups to which an animal group belonged. Saline, ST-2300 (5, 10, and 15 mg/kg), PIM (5, 10, and 15 mg/kg), FLX (10 mg/kg), RAM (10 mg/kg), and DZP (1 mg/kg) were injected i.p. 30–45 min before the beginning of the behavioral experiments.
To analyze the effect of ST-2300 on locomotion and anxiety behaviors in animals, OFT was carried out. In addition to locomotor activity, the OFT is usually used to measure anxiety-like behaviors in experimental rodents. The test provides a unique opportunity to systematically assess novel environment exploration, general locomotor activity, and provide an initial screen for anxiety-related behavior in experimental rodents. The OF box consisted of a square box (45 × 45 × 30 cm). A 23 × 23 cm area in the center region was defined as the central arena, and the remaining area was defined as periphery area. The mice with a higher degree of anxiety prefer to stay closer to the walls of the box and spend less time in the center, whereas increased time spent in the central area indicates low anxiety level and high exploratory behaviors. The first 5 min of the experiment were considered as habituation, followed by 10 min test session. Total distance moved in the whole arena, time spent in the center, and in the periphery were recorded for 10 min using a charge-coupled, camera-assisted, motion-tracking apparatus and software (EthoVision 3.1, Noldus Information Technology, Wageningen, The Netherlands). After each mouse completed the test, the OF chamber was cleaned thoroughly with 70% (volume/volume; vol/vol) alcohol.

human 5-HT7b = target: T1, human 5-HT7b (Homo sapiens, UniProt P34969); test: Radioligand displacement assay at 5-HT7 ([3H]-5-CT, HEK293 cells); assay type: binding; details: HEK293 cells stably expressing h5-HT7, read-out: Ki (n), 5-HT7
T1 construct: expressed in transfected cells; host or cells: HEK293
Method: HEK293 cells with a stable expression of human 5-HT1A, 5-HT6, 5-HT7b, and D2L (prepared with the use of Lipofectamine 2000), or CHO-K1 cells with plasmids containing the sequence coding for the human serotonin 5-HT2A receptor (PerkinElmer), were maintained at 37 °C in a humidified atmosphere with 5% CO2 and grown in Dulbecco’s Modified Eagle Medium containing 10% dialyzed fetal bovine serum and 500 µg/mL G418 sulfate. For membrane preparation, cells were subcultured in 150 cm^2 flasks, grown to 90% confluence, washed twice with prewarmed to 37 °C phosphate buffered saline (PBS) and pelleted by centrifugation (200× g) in PBS containing 0.1 mM EDTA and 1 mM dithiothreitol. Prior to membrane preparation, the pellets were stored at −80 °C.
Cell pellets were thawed and homogenized in 10 volumes of assay buffer using an Ultra Turrax tissue homogenizer, and were then centrifuged twice at 35,000× g for 15 min at 4 °C, with incubations for 15 min at 37 °C in between. […] The process of equilibration was terminated by rapid filtration through Unifilter plates with a 96-well cell harvester and the radioactivity retained on the filters was quantified on a Microbeta plate reader (PerkinElmer, Waltham, MA, USA). […] The inhibition constants (Ki) were calculated from the Cheng-Prusoff equation [38]. Results are expressed as means of two separate experiments.

C57BL/6 mice [2] = test: Forced swim test (FST); assay type: in vivo; details: for immobility time in FST: acute i.p. pretreatment, ST-2300 or PIM 5, 10, 15 mg/kg, vs saline controls, adult male C57BL/6 mice, 6 min
Method: as §1, §2
The FST test was performed according to previously described protocols. Mice were individually placed into glass cylinders containing 15 cm of water at ∼25 °C. The mice were left in the cylinders for 6 min and immobility was observed and analyzed. The mice were then removed from the container and left to dry in a heated enclosure before being returned to their home cages. The mice were considered to be immobile when they ceased struggling and remained floating motionless in the water (without any vertical or horizontal movements), making only the movements necessary to keep their heads above the water level as described previously.

T1 sequence (P34969 1-432): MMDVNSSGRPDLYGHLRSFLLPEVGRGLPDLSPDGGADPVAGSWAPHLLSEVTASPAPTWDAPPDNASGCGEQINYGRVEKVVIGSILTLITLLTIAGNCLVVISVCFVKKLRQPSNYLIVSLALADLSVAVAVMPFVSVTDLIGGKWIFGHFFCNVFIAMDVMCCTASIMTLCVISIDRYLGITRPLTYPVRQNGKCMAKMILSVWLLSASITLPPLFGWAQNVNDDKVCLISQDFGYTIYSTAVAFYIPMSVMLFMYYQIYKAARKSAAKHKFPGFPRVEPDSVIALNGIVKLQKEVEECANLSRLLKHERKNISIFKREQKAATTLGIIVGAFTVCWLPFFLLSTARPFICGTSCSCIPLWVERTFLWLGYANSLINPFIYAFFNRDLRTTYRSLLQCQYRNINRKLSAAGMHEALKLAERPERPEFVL

Row | SMILES | time spent in the center of the arena in OFT (anxiety level) (C57BL/6 mice [1]) | number of total line crossings in OFT (locomotor activity) (C57BL/6 mice [1]) | Ki (human 5-HT7b) | immobility time in FST (C57BL/6 mice [2]) | time spent in the center in OFT, co-administration of RAM (C57BL/6 mice [1]; ST-2300 10 mg/kg i.p. co-administered with RAM 10 mg/kg i.p.) | immobility time in FST, co-administration of RAM (C57BL/6 mice [2]; ST-2300 10 mg/kg i.p. co-administered with H3R agonist RAM 10 mg/kg i.p., vs ST-2300 alone)
1 | CC(C)COc1ccc(CNC(=O)N(Cc2ccc(F)cc2)C2CCN(C)CC2)cc1 [Pimavanserin, reference compound] | failed to provide any appreciable effects on the anxiety levels | did not alter the number of total line crossings | > 10 µM | significant and dose-dependent decrease of immobility time |  | 
2 | CN1CCC(N(Cc2ccc(F)cc2)C(=O)NCc2ccc(OCCCN3CCCCC3)cc2)CC1 [ST-2300, 1-(4-Fluorobenzyl)-1-(1-methylpiperidin-4-yl)-3-{4-[3-(piperidin-1-yl)propoxy]benzyl}urea] | dose-dependent increase of time spent in the center of the arena | did not alter the number of total line crossings | > 10 µM | significant and dose-dependent decrease of immobility time | could not be reversed by co-administration with RAM | significant increase of immobility time

— publication PMC9138994 (Biomolecules, 2022)
